Data: patent US12599554B2, “Pharmaceutical formulations comprising tadalafil” (KYDES PHARMACEUTICALS, LLC, priority 2020, dated 2026)

Experiments:
[1] = cited from earlier work
[2] = Solubility of tadalafil in aqueous media and solvents; precipitation on adding water; format: physicochemical
From the text: Tadalafil is soluble in 2-pyrollidone, but the use of 2-pyrollidone as a solvent is limited by color formation, unpalatable taste, and incompatibility with plastic components of metered-dose delivery systems. […] Compatibility with the pumps was improved with water in an amount of at least 10% weight in volume.

[3] = cited from earlier work; remark: listed apart in the source

solubility in 2-pyrollidone ([2]; 2-pyrollidone): soluble | solubility in propylene carbonate ([2]; propylene carbonate): soluble
Compound: CN1CC(=O)N2[C@H](c3ccc4c(c3)OCO4)c3[nH]c4ccccc4c3C[C@@H]2C1=O [Tadalafil, (2R,8R)-2-(1,3-benzodioxol-5-yl)-6-methyl-3,6,17-triazatetracyclo[8.7.0.0^3,8.0^11,16]heptadeca-1(10),11,13,15-tetraene-4,7-dione]
bioavailability in humans [1]: 80% | solubility in aqueous media [3]: insoluble
